Measurements as given in the supplement of paper PMC10307832.

Assays:
Assay in all cases: relative viability (nuclei count vs DMSO), 5 days (fraction); higher = more cells survive
Sunitinib + Palbociclib = compound: CCN(CC)CCNC(=O)c1c(C)[nH]c(/C=C2\C(=O)Nc3ccc(F)cc32)c1C [Sunitinib] + CC(=O)c1c(C)c2cnc(Nc3ccc(N4CCNCC4)cn3)nc2n(C2CCCC2)c1=O [Palbociclib] (partner 0.5 µM)
In short: (§1)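 Lung cancer cell lines were pin-tool dosed in 1536-well plates on the day after seeding, with either a lone drug or a fixed anchor-drug dose plus five library-drug doses (not always all listed) in √10 steps. Nuclei were counted on 4× images after 5 days. Relative viability is the ratio of treated-well to vehicle-well nuclei counts, with each value a median of duplicate plates.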

Sunitinib + Alpelisib = compound: CCN(CC)CCNC(=O)c1c(C)[nH]c(/C=C2\C(=O)Nc3ccc(F)cc32)c1C [Sunitinib] + Cc1nc(NC(=O)N2CCC[C@H]2C(N)=O)sc1-c1ccnc(C(C)(C)C(F)(F)F)c1 [Alpelisib] (partner 2 µM)
In short: as §1

Sunitinib + Dasatinib = compound: CCN(CC)CCNC(=O)c1c(C)[nH]c(/C=C2\C(=O)Nc3ccc(F)cc32)c1C [Sunitinib] + Cc1nc(Nc2ncc(C(=O)Nc3c(C)cccc3Cl)s2)cc(N2CCN(CCO)CC2)n1 [Dasatinib] (partner 0.075 µM)
In short: as §1

Sunitinib + Bortezomib = compound: CCN(CC)CCNC(=O)c1c(C)[nH]c(/C=C2\C(=O)Nc3ccc(F)cc32)c1C [Sunitinib] + CC(C)C[C@H](NC(=O)[C@H](Cc1ccccc1)NC(=O)c1cnccn1)B(O)O [Bortezomib] (partner 0.002 µM)
In short: as §1

Cell Line	relative viability (Sunitinib + Palbociclib; first compound 0.02 µM)	relative viability (Sunitinib + Palbociclib; first compound 0.2 µM)	relative viability (Sunitinib + Palbociclib; first compound 0.6325 µM)	relative viability (Sunitinib + Palbociclib; first compound 2 µM)	relative viability (Sunitinib + Alpelisib; first compound 0.02 µM)	relative viability (Sunitinib + Alpelisib; first compound 0.06325 µM)	relative viability (Sunitinib + Alpelisib; first compound 0.2 µM)	relative viability (Sunitinib + Alpelisib; first compound 0.6325 µM)	relative viability (Sunitinib + Alpelisib; first compound 2 µM)	relative viability (Sunitinib + Dasatinib; first compound 0.02 µM)	relative viability (Sunitinib + Dasatinib; first compound 0.06325 µM)	relative viability (Sunitinib + Dasatinib; first compound 0.2 µM)	relative viability (Sunitinib + Dasatinib; first compound 0.6325 µM)	relative viability (Sunitinib + Dasatinib; first compound 2 µM)	relative viability (Sunitinib + Bortezomib; first compound 0.02 µM)	relative viability (Sunitinib + Bortezomib; first compound 0.2 µM)	relative viability (Sunitinib + Bortezomib; first compound 0.6325 µM)	relative viability (Sunitinib + Bortezomib; first compound 2 µM)	relative viability (Sunitinib + Palbociclib; first compound 0.06325 µM)	relative viability (Sunitinib + Bortezomib; first compound 0.06325 µM)
LK-2	0.563	0.681	0.586	0.642	0.942	0.906	1.28	1.18	0.916	0.223	0.27	0.324	0.339	0.297						
Calu-6					0.904	1.1	1.11	1.16	0.898						0.979	1.08	1.2	1.09		
NCI-H2170	0.392	0.422	0.379	0.421	0.757	0.782	0.998	0.914	0.777	0.505	0.653	0.656	0.548	0.544					0.376	
NCI-H1299					1.02		1.06	1.08	1.06						0.999	1.01		1		1.06
NCI-H1793		0.311	0.299	0.319		0.727	0.823	0.696	0.787	0.397	0.366	0.429	0.444	0.346					0.307	
NCI-H596					0.476	0.596	0.604	0.485	0.42	0.599	0.731	0.709	0.709	0.467	0.996	0.999	1.08	1.33		1.16
HCC-44		1.01	0.925	1.01	0.72	0.909	0.966	0.863	0.826						0.893	1.1		0.88		0.898
NCI-H1703					0.211	0.161	0.199	0.154	0.188						0.249	0.176	0.19	0.176		0.218
NCI-H358	0.138	0.138	0.132	0.125	0.902	0.803		0.762	0.451	0.151	0.187	0.182	0.19	0.174					0.158	
SK-MES-1	0.309	0.363	0.397	0.388	0.885	1.02	0.86	1.02	0.927	0.354	0.457	0.341	0.319	0.308					0.322	
NCI-H1650	0.359	0.384	0.392	0.33						0.321	0.337	0.309	0.358	0.268	0.194	0.192	0.203	0.211	0.472	0.226
ChaGo-K-1	0.919	0.945	0.933	0.801						0.529	0.753	0.575	0.571	0.598	1.04	1.03	0.977	1.05	0.918	1.03
IA-LM					0.645	0.812	0.773	0.919	0.87						0.831	0.868	1.12	1.18		0.85
